Our source for the melting point values is patent US7399775B2, “β-amyloid protein production/secretion inhibitor” (Daiichi Pharmaceutical Co., Ltd., priority 2001, dated 2008).

On to `CS(=O)(=O)CCCCC(c1cccc(Cl)c1F)S(=O)(=O)c1ccc(Cl)cc1` (centres unmarked) [Example 78, 1-Chloro-3-[1-(4-chlorophenylsulfonyl)-5-(methylsulfonyl)pentyl]-2-fluorobenzene], for which the melting point (as a rule, the temperature, or range, at which the solid turns liquid) was 131 to 132 °C.
Compound `CS(=O)(=O)CCCCC(c1cc(Cl)ccc1F)S(=O)(=O)c1ccc(Cl)cc1` (centres unmarked) [Example 79, 4-Chloro-2-[1-(4-chlorophenylsulfonyl)-5-(methylsulfonyl)pentyl]-1-fluorobenzene] came in with a melting point of 116 to 117 °C.
Turning to `CS(=O)(=O)CCCCC(c1c(F)cccc1F)S(=O)(=O)c1ccc(Cl)cc1` (centres unmarked) [Example 81, 2-[1-(4-Chlorophenylsulfonyl)-5-(methylsulfonyl)pentyl]-1,3-difluorobenzene], the melting point is 118 to 119 °C.
Then `COc1cccc(C(CCCCS(C)(=O)=O)S(=O)(=O)c2ccc(Cl)cc2)c1` (centres unmarked) [Example 83, 1-[1-(4-Chlorophenylsulfonyl)-5-(methylsulfonyl)pentyl]-3-methoxybenzene], with 91 to 93 °C; and `COc1ccc(C(CCCCS(C)(=O)=O)S(=O)(=O)c2ccc(Cl)cc2)cc1` (centres unmarked) [Example 85, 1-[1-(4-Chlorophenylsulfonyl)-5-(methylsulfonyl)pentyl]-4-methoxybenzene], with 136 to 138 °C; and `CS(=O)(=O)CCCCC(C1CCCCC1)S(=O)(=O)c1ccc(Cl)cc1` (centres unmarked) [Example 95, 1-Chloro-4-[1-cyclohexyl-5-(methylsulfonyl)pentylsulfonyl]benzene], with 104 to 106 °C.
The compound `CS(=O)(=O)CCCCC(Cc1ccccc1)S(=O)(=O)c1ccc(Cl)cc1` (centres unmarked) [Example 97, 4-[1-Benzyl-5-(methylsulfonyl)pentylsulfonyl]-1-chlorobenzene] showed a melting point of 68 to 70 °C.
Then `CS(=O)(=O)CCCCC(c1cnccc1Cl)S(=O)(=O)c1ccc(Cl)cc1` (centres unmarked) [Example 105, 4-Chloro-3-[1-[(4-chlorophenyl)sulfonyl]-5-(methylsulfonyl)pentyl]pyridine], with 156 to 157 °C; and `O=S(=O)(c1ccc(Cl)cc1)C1(c2cccnc2Cl)CCCCCC1` [Example 108, 2-Chloro-3-[1-(4-chlorophenylsulfonyl)cycloheptyl]pyridine], with 168 to 169 °C.
The compound `O=S(=O)(c1ccc(Cl)cc1)C1(c2cccnc2Cl)CCCCC1` [Example 109, 2-Chloro-3-[1-(4-chlorophenylsulfonyl)cyclohexyl]pyridine] gave a melting point of 129 to 131 °C.
Then `O=S(=O)(c1ccc(Cl)cc1)C1(c2cnccc2Cl)CCCCC1` [Example 110, 4-Chloro-3-[1-(4-chlorophenylsulfonyl)cyclohexyl]pyridine], with 145 to 147 °C; and `CS(=O)(=O)CCCCC(c1cscn1)S(=O)(=O)c1ccc(Cl)cc1` (centres unmarked) [Example 112, 4-[1-(4-Chlorophenylsulfonyl)-5-(methylsulfonyl)pentyl]thiazole], with 123 to 125 °C; and `CS(=O)(=O)CCCCC(c1cncs1)S(=O)(=O)c1ccc(Cl)cc1` (centres unmarked) [Example 114, 5-[1-[(4-Chlorophenyl)sulfonyl]-5-(methylsulfonyl)pentyl]thiazole], with 95 to 96 °C.
Then `CS(=O)(=O)CCCCC(c1nccs1)S(=O)(=O)c1ccc(Cl)cc1` (centres unmarked) [Example 116, 2-[1-[(4-Chlorophenyl)sulfonyl]-5-(methylsulfonyl)pentyl]thiazole], with 118 to 119 °C; and `CS(=O)(=O)CCCCC(c1cnco1)S(=O)(=O)c1ccc(Cl)cc1` (centres unmarked) [Example 118, 5-[1-(4-Chlorophenylsulfonyl)-5-(methylsulfonyl)pentyl]oxazole], with 164 to 166 °C; and `CCCCC(c1ccncc1)S(=O)(=O)c1ccc(Cl)cc1` (centres unmarked) [Example 120, 4-[1-(4-Chlorophenylsulfonyl)pentyl]pyridine], with 109 to 111 °C.
For the compound `O=S(=O)(c1ccc(Cl)cc1)C(c1ccncc1)C1CCCC1` (centres unmarked) [Example 121, 4-[(4-Chlorophenylsulfonyl)(cyclopentyl)methyl]pyridine], the melting point lay within 133 to 135 °C.
Compound `O=S(=O)(c1ccc(Cl)cc1)C(c1ccncc1)C1CCOCC1` (centres unmarked) [Example 122, 4-[(4-Chlorophenylsulfonyl)(tetrahydropyran-4-yl)methyl]pyridine] returned a melting point of 208 to 209 °C.
With `CN1CCC(C(c2ccncc2)S(=O)(=O)c2ccc(Cl)cc2)CC1` (centres unmarked) [Example 124, 4-[(4-Chlorophenylsulfonyl)(1-methylpiperidin-4-yl)methyl]pyridine], the melting point lay in the range of 176 to 177 °C.
Then `CN(C)CCCC(c1ccncc1)S(=O)(=O)c1ccc(Cl)cc1` (centres unmarked) [Example 125, 4-(4-Chlorophenylsulfonyl)-N,N-dimethyl-4-(pyridin-4-yl)butylamine], with 78 to 80 °C; and `CN(C)CCC(c1ccncc1)S(=O)(=O)c1ccc(Cl)cc1` (centres unmarked) [Example 126, 3-(4-Chlorophenylsulfonyl)-N,N-dimethyl-3-(pyridin-4-yl)propylamine], with 91 to 92 °C; and `O=S(=O)(c1ccc(Cl)cc1)C(c1ccccn1)c1cc(F)ccc1F` (centres unmarked) [Example 135, 2-[[(4-Chlorophenyl)sulfonyl]-(2,5-difluorophenyl)methyl]pyridine], with 171 to 172 °C.
Next, `Cc1ccc(C(c2cc(F)ccc2F)S(=O)(=O)c2ccc(Cl)cc2)nc1` (centres unmarked) [Example 137, 2-[[(4-Chlorophenyl)sulfonyl]-(2,5-difluorophenyl)methyl]-5-methylpyridine]: 159 to 160 °C.
Next, `Cc1ccnc(C(c2cc(F)ccc2F)S(=O)(=O)c2ccc(Cl)cc2)c1` (centres unmarked) [Example 138, 2-[[(4-Chlorophenyl)sulfonyl]-(2,5-difluorophenyl)methyl]-4-methylpyridine]: 116 to 117 °C; `COc1cccnc1C(c1cc(F)ccc1F)S(=O)(=O)c1ccc(Cl)cc1` (centres unmarked) [Example 139, 2-[[(4-Chlorophenyl)sulfonyl]-(2,5-difluorophenyl)methyl]-3-methoxypyridine]: 184 to 185 °C; `C=CCOc1cccnc1C(c1cc(F)ccc1F)S(=O)(=O)c1ccc(Cl)cc1` (centres unmarked) [Example 140, 3-Allyloxy-2-[[(4-chlorophenyl)sulfonyl]-(2,5-difluorophenyl)methyl]pyridine]: 119 to 120 °C.
`Cn1c(Cl)cnc1C(c1cc(F)ccc1F)S(=O)(=O)c1ccc(Cl)cc1` (centres unmarked) [Example 151, 2-[[(4-Chlorophenyl)sulfonyl]-(2,5-difluorophenyl)methyl]-1-methyl-5-chloro-1H-imidazole] returned a melting point of 179 to 180 °C.
Then `O=S(=O)(c1ccc(Cl)cc1)C(c1nccs1)c1cc(F)ccc1F` (centres unmarked) [Example 152, 2-[[(4-Chlorophenyl)sulfonyl]-(2,5-difluorophenyl)methyl]thiazole], with 163 to 164 °C.
Next, `COc1ccc(-n2ccnc2C(c2cc(F)ccc2F)S(=O)(=O)c2ccc(Cl)cc2)cc1` (centres unmarked) [Example 153, 2-[[(4-Chlorophenyl)sulfonyl]-(2,5-difluorophenyl)methyl]-1-(4-methoxyphenyl)-1H-imidazole]: 150 to 151 °C; `O=S(=O)(c1ccc(Cl)cc1)C1(c2nnnn2Cc2ccccc2)CCCCC1` [Example 195, 1-Benzyl-5-[1-(4-chlorobenzenesulfonyl)cyclohexyl]-1H-tetrazole]: 154 to 155 °C; `O=S(=O)(c1ccc(Cl)cc1)C1(c2nnn(Cc3ccccc3)n2)CCCCC1` [Example 197, 2-Benzyl-5-[1-(4-chlorobenzenesulfonyl)cyclohexyl]-2H-tetrazole]: 133 to 134 °C.
Next, `O=C(CC(c1cc(F)ccc1F)S(=O)(=O)c1ccc(Cl)cc1)N1CCCC1` (centres unmarked) [Example 198, 3-[(4-Chlorophenyl)sulfonyl]-3-(2,5-difluorophenyl)-1-(1-pyrrolildinyl)-1-propanone]: 122 to 125 °C; `O=C(O)CCC(c1cc(F)ccc1F)S(=O)(=O)c1ccc(Cl)cc1` (centres unmarked) [Example 200, 4-[(4-Chlorophenyl)sulfonyl]-4-(2,5-difluorophenyl)butyric Acid]: 157 to 158 °C; `O=C(CCC(c1cc(F)ccc1F)S(=O)(=O)c1ccc(Cl)cc1)N1CCCC1` (centres unmarked) [Example 201, 4-[(4-Chlorophenyl)sulfonyl]-4-(2,5-difluorophenyl)-1-(1-pyrrolildinyl)-1-butanone]: 134 to 135 °C.
`O=C(O)CCCC(c1cc(F)ccc1F)S(=O)(=O)c1ccc(Cl)cc1` (centres unmarked) [Example 202, 5-[(4-chlorophenyl)sulfonyl]-5-(2,5-difluorophenyl)-1-valeric Acid] displayed a melting point of 151 to 152 °C.
Next, `O=C(CCCC(c1cc(F)ccc1F)S(=O)(=O)c1ccc(Cl)cc1)N1CCCC1` (centres unmarked) [Example 203, 5-[(4-Chlorophenyl)sulfonyl]-5-(2,5-difluorophenyl)-1-(1-pyrrolildinyl)-1-pentanone]: 125 to 126 °C; `O=C(CCCCC(c1cc(F)ccc1F)S(=O)(=O)c1ccc(Cl)cc1)N1CCCC1` (centres unmarked) [Example 204]: 135 to 136 °C.
Next, `O=C(O)CCCCCC(c1cc(F)ccc1F)S(=O)(=O)c1ccc(Cl)cc1` (centres unmarked) [Example 205, 7-[(4-Chlorophenyl)sulfonyl]-7-(2,5-difluorophenyl)heptanoic Acid]: 72 to 76 °C; `O=C(CCCCCC(c1cc(F)ccc1F)S(=O)(=O)c1ccc(Cl)cc1)N1CCCC1` (centres unmarked) [Example 206, 7-[(4-Chlorophenyl)sulfonyl]-7-(2,5-difluorophenyl)-1-(1-pyrrolildinyl)-1-heptanone]: 106 °C; `O=S(=O)(c1ccc(Cl)cc1)C(CCO)c1cc(F)ccc1F` (centres unmarked) [Example 207, 3-[(4-Chlorophenyl)sulfonyl]-3-(2,5-difluorophenyl)-1-propanol]: 147 to 149 °C.
Then `O=C(OCCC(c1cc(F)ccc1F)S(=O)(=O)c1ccc(Cl)cc1)N1CCCC1` (centres unmarked) [Example 208, 3-[(4-Chlorophenyl)sulfonyl]-3-(2,5-difluorophenyl)propyl=1-pyrrolidinecarboxylate], with 109 to 110 °C.
